According to paper PMC4159296, “Antibodies to the Extracellular Pore Loop of TRPM8 Act as Antagonists of Channel Activation” (PLoS ONE, 2014):
Entries after “also recorded” stand apart in the source; their conditions may differ. Read-outs that look alike come from different tables or passages of the source.

What was measured:
Assay type in all cases: cell-based
[1] = target: T1, human TRPM8 (Homo sapiens, UniProt Q7Z2W7); assay: agonist-induced 45Ca2+ uptake assay, CHO cells expressing human TRPM8; conditions: for IC50: CHO cells, mean ± SD; for block of icilin-induced 45Ca2+ uptake, human TRPM8 in CHO cells: single concentration/volume, 30 µl antibody solution, stock concentrations not provided, Fig. 6A
T1 construct: expressed in transfected cells; host or cells: T-REx-CHO (Chinese hamster ovary), tetracycline-induced
T1 sequence (Q7Z2W7 whole entry): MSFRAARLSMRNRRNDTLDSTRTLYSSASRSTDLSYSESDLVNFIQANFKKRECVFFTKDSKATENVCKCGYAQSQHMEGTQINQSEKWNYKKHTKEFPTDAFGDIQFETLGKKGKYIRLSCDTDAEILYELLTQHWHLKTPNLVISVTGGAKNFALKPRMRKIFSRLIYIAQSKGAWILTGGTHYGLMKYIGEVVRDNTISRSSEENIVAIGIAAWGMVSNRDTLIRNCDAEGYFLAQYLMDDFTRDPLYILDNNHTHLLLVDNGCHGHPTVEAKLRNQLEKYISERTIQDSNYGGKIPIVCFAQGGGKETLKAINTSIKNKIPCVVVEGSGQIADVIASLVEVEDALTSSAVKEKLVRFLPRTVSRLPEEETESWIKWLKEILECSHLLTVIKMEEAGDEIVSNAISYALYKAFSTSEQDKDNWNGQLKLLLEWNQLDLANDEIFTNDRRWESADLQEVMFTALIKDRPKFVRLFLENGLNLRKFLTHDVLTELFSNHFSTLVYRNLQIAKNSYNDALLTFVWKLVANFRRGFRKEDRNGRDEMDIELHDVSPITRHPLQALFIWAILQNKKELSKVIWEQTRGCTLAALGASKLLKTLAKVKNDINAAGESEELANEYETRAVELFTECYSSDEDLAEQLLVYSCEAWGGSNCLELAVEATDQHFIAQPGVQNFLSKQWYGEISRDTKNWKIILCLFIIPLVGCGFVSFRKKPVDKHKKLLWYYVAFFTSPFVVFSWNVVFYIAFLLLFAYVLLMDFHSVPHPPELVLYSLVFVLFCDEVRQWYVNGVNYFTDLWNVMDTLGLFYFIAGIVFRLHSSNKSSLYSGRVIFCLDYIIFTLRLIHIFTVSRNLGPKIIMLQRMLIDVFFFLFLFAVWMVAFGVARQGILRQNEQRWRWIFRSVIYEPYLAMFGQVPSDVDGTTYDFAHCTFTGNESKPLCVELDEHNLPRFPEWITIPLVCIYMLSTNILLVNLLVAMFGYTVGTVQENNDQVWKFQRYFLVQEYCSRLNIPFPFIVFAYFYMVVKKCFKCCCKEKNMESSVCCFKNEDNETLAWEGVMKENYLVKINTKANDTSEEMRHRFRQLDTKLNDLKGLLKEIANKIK
Description: (§1) Complementary DNAs of recombinant human, rat and mouse TRPM8 were stably transfected into Tetracycline-Regulated Expression cell line, T-REx-Chinese hamster ovary cell line from Invitrogen, Inc. (Carlsbad, CA). Twenty four hours before the assay, cells were seeded in Cytostar-T 96-well plates at a density of 3.0×10^4 per well, and TRPM8 channel expression was induced with 0.5 µg/ml tetracycline. On the day of the assay, culture media were removed, and cells were incubated with TRPM8 antibody (ACC-049), antagonist M8-B, or control IgG for 30 min before addition of ^45Ca^2+. Stock solutions of ACC-049, M8-B, and control IgG were diluted to the desired final concentrations in the assay buffer (F-12 Ham's containing 15 mM HEPES and 0.1 mg/ml BSA) keeping the final concentration of DMSO lower than 0.5% for M8-B. The activity of TRPM8 was monitored as function of cellular uptake of radioactive calcium. The final concentration of ^45Ca^2+in the ^45Ca^2+ uptake assay was 10 µCi/ml. […] For cold activation of TRPM8, cold assay buffer at 10°C was used. ACC-049 was assayed in cells stably expressing human, rat, or mouse TRPM8 channels. The other commercial antibodies listed in Table 1 were assayed at a single concentration in 30 µl in icilin induced activation of human TRPM8 channels. The TRPM8 antagonist M8-B was used as a positive control and control IgG was used as a negative control in all assays. TRPM8 activation was calculated as percent of control (POC) with agonist (cold, icilin or menthol) induced radioactive calcium uptake set as 100 percent and assay buffer only plus ^45Ca^2+ set as zero percent with exception of cold activation, where blockade with M8-B at 1 µM was set as zero percent. Evaluation of antagonism at heat activation of TRPV1 [26], and noxious cold temperature activation of TRPA1 [24] was conducted as reported previously.
(§2) GraphPad Prism 5.0 (GraphPad Software, Inc., San Diego, CA) software was used to plot the data and to calculate the 50% inhibitory concentrations (IC50) of compounds and antibodies using a sigmoidal dose-response equation.

[2] = target: T2, mouse TRPM8 (Mus musculus, UniProt Q8R4D5); assay: agonist-induced 45Ca2+ uptake assay, CHO cells expressing mouse TRPM8; conditions: mean ± SD
T2 construct: expressed in transfected cells; host or cells: T-REx-CHO (Chinese hamster ovary), tetracycline-induced
T2 sequence (Q8R4D5 whole entry): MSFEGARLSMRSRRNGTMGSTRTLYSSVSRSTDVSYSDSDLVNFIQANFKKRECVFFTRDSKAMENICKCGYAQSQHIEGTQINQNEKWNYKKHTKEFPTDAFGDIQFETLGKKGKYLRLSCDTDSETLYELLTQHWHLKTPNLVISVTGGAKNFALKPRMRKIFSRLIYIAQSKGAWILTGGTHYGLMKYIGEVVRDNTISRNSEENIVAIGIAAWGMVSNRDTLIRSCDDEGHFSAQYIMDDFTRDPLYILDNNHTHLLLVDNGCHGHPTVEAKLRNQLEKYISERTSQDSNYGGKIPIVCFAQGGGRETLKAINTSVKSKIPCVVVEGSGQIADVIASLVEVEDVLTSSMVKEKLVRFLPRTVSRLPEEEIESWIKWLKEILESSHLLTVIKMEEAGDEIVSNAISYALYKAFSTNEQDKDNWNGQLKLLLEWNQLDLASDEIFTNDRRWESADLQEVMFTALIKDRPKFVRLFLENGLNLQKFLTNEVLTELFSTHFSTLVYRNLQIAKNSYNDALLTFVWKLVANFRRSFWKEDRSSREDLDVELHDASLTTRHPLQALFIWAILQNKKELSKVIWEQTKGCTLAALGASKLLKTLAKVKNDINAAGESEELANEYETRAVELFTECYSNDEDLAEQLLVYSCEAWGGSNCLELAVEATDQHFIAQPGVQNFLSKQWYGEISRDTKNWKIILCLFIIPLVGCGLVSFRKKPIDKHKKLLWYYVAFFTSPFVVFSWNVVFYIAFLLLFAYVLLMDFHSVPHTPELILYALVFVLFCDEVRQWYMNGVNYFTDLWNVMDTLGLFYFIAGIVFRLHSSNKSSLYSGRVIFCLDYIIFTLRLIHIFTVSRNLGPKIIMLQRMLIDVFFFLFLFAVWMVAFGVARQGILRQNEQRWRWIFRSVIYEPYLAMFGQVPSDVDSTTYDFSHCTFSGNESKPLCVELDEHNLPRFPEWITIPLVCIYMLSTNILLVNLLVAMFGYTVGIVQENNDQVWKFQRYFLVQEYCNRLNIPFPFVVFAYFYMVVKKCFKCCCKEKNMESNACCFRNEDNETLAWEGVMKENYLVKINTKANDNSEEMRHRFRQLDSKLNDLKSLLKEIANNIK
Description: as §1, §2

[3] = target: T3, rat TRPM8 (Rattus norvegicus, UniProt Q8R455); assay: agonist-induced 45Ca2+ uptake assay, CHO cells expressing rat TRPM8; conditions: mean ± SD
T3 construct: expressed in transfected cells; host or cells: T-REx-CHO (Chinese hamster ovary), tetracycline-induced
T3 sequence (Q8R455 whole entry): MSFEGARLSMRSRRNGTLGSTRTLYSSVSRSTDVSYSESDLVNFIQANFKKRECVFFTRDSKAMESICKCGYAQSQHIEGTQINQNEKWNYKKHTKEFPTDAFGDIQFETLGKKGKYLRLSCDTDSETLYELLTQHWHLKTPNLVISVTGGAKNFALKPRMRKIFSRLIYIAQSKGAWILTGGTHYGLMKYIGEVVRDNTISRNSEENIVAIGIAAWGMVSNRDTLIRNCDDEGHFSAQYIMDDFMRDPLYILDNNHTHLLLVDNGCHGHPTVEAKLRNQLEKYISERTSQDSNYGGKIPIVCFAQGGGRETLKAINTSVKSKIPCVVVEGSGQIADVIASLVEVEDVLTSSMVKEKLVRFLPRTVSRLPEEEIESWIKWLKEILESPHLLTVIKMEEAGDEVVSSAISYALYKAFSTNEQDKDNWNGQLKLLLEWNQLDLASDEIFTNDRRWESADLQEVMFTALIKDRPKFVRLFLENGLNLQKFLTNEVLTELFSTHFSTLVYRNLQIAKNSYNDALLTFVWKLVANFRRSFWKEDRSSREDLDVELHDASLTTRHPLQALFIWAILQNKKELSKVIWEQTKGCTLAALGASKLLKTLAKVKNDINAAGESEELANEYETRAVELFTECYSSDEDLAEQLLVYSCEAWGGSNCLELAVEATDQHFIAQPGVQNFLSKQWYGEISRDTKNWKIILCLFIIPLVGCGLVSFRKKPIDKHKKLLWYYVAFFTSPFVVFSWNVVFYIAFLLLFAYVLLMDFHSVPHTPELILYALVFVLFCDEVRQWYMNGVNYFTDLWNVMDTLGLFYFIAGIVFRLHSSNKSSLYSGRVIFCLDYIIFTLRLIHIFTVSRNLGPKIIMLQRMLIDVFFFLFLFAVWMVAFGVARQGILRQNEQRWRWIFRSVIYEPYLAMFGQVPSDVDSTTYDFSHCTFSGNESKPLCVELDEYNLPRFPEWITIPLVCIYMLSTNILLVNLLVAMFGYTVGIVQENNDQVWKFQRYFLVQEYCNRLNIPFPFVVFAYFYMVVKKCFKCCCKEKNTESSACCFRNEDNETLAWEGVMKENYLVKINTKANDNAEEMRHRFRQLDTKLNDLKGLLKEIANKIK
Description: as §1, §2

[4] = target: T4, endogenous TRPM8 expressed in rat dorsal root ganglion neurons (Rattus norvegicus, UniProt Q8R455); assay: icilin-induced 45Ca2+ uptake assay in freshly isolated rat DRG neurons; conditions: 1 µM icilin; same single concentration/volume of antibodies; Fig. 6B
T4 construct: endogenous in cells; host or cells: primary dorsal root ganglion neurons from male Sprague Dawley rats
T4 sequence (Q8R455 whole entry): as above

[5] = target: human TRPV1 (Homo sapiens, UniProt Q8NER1); assay: heat activation of human TRPV1, 45Ca2+ uptake; conditions: ACC-049 and control IgG 2.5 µM; peptide 10 µM; Fig. 2
human TRPV1, sequence (Q8NER1 whole entry): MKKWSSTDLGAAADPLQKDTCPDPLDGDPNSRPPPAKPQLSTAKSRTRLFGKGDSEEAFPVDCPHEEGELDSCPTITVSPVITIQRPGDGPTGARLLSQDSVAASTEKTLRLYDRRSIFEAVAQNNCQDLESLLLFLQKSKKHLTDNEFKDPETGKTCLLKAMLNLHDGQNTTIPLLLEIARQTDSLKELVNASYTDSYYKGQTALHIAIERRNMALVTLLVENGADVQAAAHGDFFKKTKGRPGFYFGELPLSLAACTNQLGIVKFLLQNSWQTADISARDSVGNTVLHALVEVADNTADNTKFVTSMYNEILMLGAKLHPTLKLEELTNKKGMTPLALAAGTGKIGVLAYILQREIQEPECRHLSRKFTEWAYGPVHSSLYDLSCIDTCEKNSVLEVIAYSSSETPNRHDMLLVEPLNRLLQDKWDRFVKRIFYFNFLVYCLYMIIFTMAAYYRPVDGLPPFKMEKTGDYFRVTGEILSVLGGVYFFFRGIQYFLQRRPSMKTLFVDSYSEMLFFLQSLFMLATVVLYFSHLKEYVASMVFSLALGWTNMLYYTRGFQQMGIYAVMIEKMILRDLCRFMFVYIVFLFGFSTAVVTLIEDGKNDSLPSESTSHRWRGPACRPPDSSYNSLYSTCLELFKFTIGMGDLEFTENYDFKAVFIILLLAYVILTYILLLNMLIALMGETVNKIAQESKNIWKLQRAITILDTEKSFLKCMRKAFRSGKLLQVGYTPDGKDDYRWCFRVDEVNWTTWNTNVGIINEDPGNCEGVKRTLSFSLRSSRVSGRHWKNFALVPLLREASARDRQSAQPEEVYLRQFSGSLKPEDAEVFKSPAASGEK
Description: as §1, with “ACC-049 was assayed in cells stably expressing human, rat, or mouse TRPM8 channels. The other commercial antibodies listed in Table 1 were assayed at a single concentration in 30 µl in icilin induced activation of human TRPM8 channels. The TRPM8 antagonist M8-B was used as a positive control and control IgG was used as a negative control in all assays.” left out, “Evaluation of antagonism at heat activation of TRPV1 [26], and noxious cold temperature activation of TRPA1 [24] was conducted as reported previously.” left out

[6] = target: human TRPA1 (Homo sapiens, UniProt O75762); assay: noxious cold temperature activation of human TRPA1, 45Ca2+ uptake; conditions: ACC-049 and control IgG 2.5 µM; peptide 10 µM; Fig. 2
Description: as §1, with “ACC-049 was assayed in cells stably expressing human, rat, or mouse TRPM8 channels. The other commercial antibodies listed in Table 1 were assayed at a single concentration in 30 µl in icilin induced activation of human TRPM8 channels. The TRPM8 antagonist M8-B was used as a positive control and control IgG was used as a negative control in all assays.” left out, “Evaluation of antagonism at heat activation of TRPV1 [26], and noxious cold temperature activation of TRPA1 [24] was conducted as reported previously.” left out

Molecule	IC50 ([1]; 1 µM icilin, triplicate wells, read-out: IC50, icilin induced human TRPM8 channel activation)	block of icilin-induced 45Ca2+ uptake, human TRPM8 in CHO cells ([1]; 1 µM icilin)	IC50 ([1]; 100 µM menthol, triplicate wells, read-out: IC50, menthol induced human TRPM8 channel activation)	IC50 ([1]; cold 10°C, one experiment in triplicate wells, read-out: IC50, cold induced human TRPM8 channel activation)	IC50 ([2]; 1 µM icilin, triplicate wells, read-out: IC50, icilin induced mouse TRPM8 channel activation)	IC50 ([2]; 100 µM menthol, triplicate wells, read-out: IC50, menthol induced mouse TRPM8 channel activation)	IC50 ([2]; cold 10°C, one experiment in triplicate wells, read-out: IC50, cold induced mouse TRPM8 channel activation)	IC50 ([3]; 1 µM icilin, triplicate wells, read-out: IC50, icilin induced rat TRPM8 channel activation)	IC50 ([3]; 100 µM menthol, triplicate wells, read-out: IC50, menthol induced rat TRPM8 channel activation)	IC50 ([3]; cold 10°C, one experiment in triplicate wells, read-out: IC50, cold induced rat TRPM8 channel activation)	block of icilin-induced 45Ca2+ uptake, rat DRG neurons [4]	blockade of cold activation of human TRPM8, single concentration ([1]; ACC-049 and control IgG 2.5 µM, peptide 10 µM, cold, Fig. 2)	blockade of icilin activation of human TRPM8, single concentration ([1]; ACC-049 and control IgG 2.5 µM, peptide 10 µM, icilin, Fig. 2)	effect on heat activation of human TRPV1, single concentration [5]	effect on noxious cold temperature activation of human TRPA1, single concentration [6]
COc1cc(CN(CCN)C(=O)c2cccs2)ccc1OCc1ccccc1 [M8-B]	11 ± 1.2 nM	fully; also recorded: completely blocked	1 ± 1.4 nM	3 ± 1.1 nM	6 ± 1.1 nM	2 ± 1.2 nM	2 ± 1.2 nM	11 ± 1.1 nM	2 ± 1.3 nM	2 ± 1.2 nM	full inhibition				
SDVD GTTYDFAHC (N-terminal SDVD) [peptide, cognate peptide of ACC-049, amino acid residues 917-929 of human TRPM8]		no effects									did not affect	no effects	no effects	no effects	no effects
